In general, EC50 refers to the concentration needed to bring the measured effect to its halfway point. A low value points to greater potency.

The subject of the first assay is HT-1080 cells. In words: HT-1080 cell viability assay (ferroptosis induced by RSL3, Cell Titer-Glo). It counts as cell-based. As to conditions: Homo sapiens, HT-1080, 20 h, ferroptosis inducer RSL3, 20 hours, ferroptosis inhibitory activity, Table 2. An outline of the steps:
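Cells seeded overnight, then co-treated with RSL3 and compound (3-fold, 10-point dilution, top 1.1 μM) for 20 hours. Viability by CellTiter-Glo luminescence, normalized to untreated controls; EC50 from sigmoidal non-linear regression.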
A general note: ATP-based viability assays read luminescence as a measure of living cells.
Molecule `CC1(C)CCC(c2ccc(NC3CCNCC3)cc2)CC1` [Compound 131, N-(4-(4,4-dimethylcyclohexyl)phenyl)piperidin-4-amine] had an EC50 of 0.1 to 100 nM. `NCC1CCC(Nc2ccc(C(F)(F)F)cc2)CC1` (centres unmarked) [Compound 88, N-(4-(aminomethyl)cyclohexyl)-4-(trifluoromethyl)aniline] gave an EC50 of 1000 to 10000 nM.

On to `Cc1cc(NC2CCC(N)CC2)cc(C)c1C` (single isomer, unassigned) [Compound 182A, N1-(3,4,5-trimethylphenyl)cyclohexane-1,4-diamine], for which the EC50 fell in the range of 100 to 1000 nM. The same measure, in the same setting: the figure for `CC1CCC(Nc2ccc(C(C)(C)C)cc2)CC1` (centres unmarked) [Compound 334, 4-(tert-butyl)-N-(4-methylcyclohexyl)aniline] is 100 to 1000 nM; for `Cc1cc(NC2CCCCC2C(N)=O)ccc1N1CCC(C)CC1` (centres unmarked) [Compound 492, 2-((3-methyl-4-(4-methylpiperidin-1-yl)phenyl)amino)cyclohexane-1-carboxamide] it is 0.1 to 100 nM; for `CC(C)(C)c1ccc(NC2CCC(N)CC2)cc1C#N` (centres unmarked) [Compound 218, 5-((4-aminocyclohexyl)amino)-2-(tert-butyl)benzonitrile] it is 100 to 1000 nM. For the molecule `CC1(C)CCN(c2ncc(NC3CCC(N)CC3)cn2)CC1` (centres unmarked) [Compound 45, N1-(2-(4,4-dimethylpiperidin-1-yl)pyrimidin-5-yl)cyclohexane-1,4-diamine], the EC50 lay in the range of 0.1 to 100 nM. `CC(N)C1CCC(Nc2ccc(C(C)(C)C)cc2)CC1` (centres unmarked) [Compound 290, N-(4-(1-aminoethyl)cyclohexyl)-4-(tert-butyl)aniline] showed an EC50 of 0.1 to 100 nM. `CCC1CCN(c2ccc(NC3CCC(N)CC3)c(C)c2)CC1` (centres unmarked) [Compound 390, N1-(4-(4-ethylpiperidin-1-yl)-2-methylphenyl)cyclohexane-1,4-diamine] displayed an EC50 of 0.1 to 100 nM. Regarding `CC(C)C1CCN(c2ncc(NC3CCNCC3)cn2)CC1` [Compound 35, 2-(4-isopropylpiperidin-1-yl)-N-(piperidin-4-yl)pyrimidin-5-amine], the EC50 is 0.1 to 100 nM. The molecule `CC(C)C1CCN(c2ncc(NC3C[C@H]4CC(NO)C[C@H]4C3)cn2)CC1` (stereo partly drawn) [Compound 401, N-((3aR, 6aS)-5-(hydroxyamino)octahydropentalen-2-yl)-2-(4-isopropylpiperidin-1-yl) pyrimidin-5-amine] displayed an EC50 of 0.1 to 100 nM. `OC1CCCCC1Nc1ccc(N2CCC(C(F)(F)F)CC2)cc1` (centres unmarked) [Compound 415, 2-((4-(4-(trifluoromethyl)piperidin-1-yl)phenyl)amino)cyclohexan-1-ol] returned an EC50 of 0.1 to 100 nM.

In the case of `NC1CCC(Nc2ccc(Cl)cc2)CC1` (centres unmarked) [Compound 161, N1-(4-chlorophenyl)cyclohexane-1,4-diamine], the EC50 lay within 1000 to 10000 nM. `Cc1nc(N2CC(C)SC(C)C2)ccc1NC1CC2(CC(N)C2)C1` (centres unmarked) [Compound 568, N2-(6-(2,6-dimethylthiomorpholino)-2-methylpyridin-3-yl)spiro[3.3]heptane-2,6-diamine] showed an EC50 of 0.1 to 100 nM. For the molecule `CC(C)(C)c1ccc(NC2CC3CC(N)CC3C2)cc1` (centres unmarked) [Compound 277, N2-(4-(tert-butyl)phenyl) octahydropentalene-2,5-diamine], the EC50 fell in the range of 0.1 to 100 nM. Regarding `Cc1nc(N2CCOCC2)ccc1NC1C2CC3CC1CC(N)(C3)C2` (centres unmarked) [Compound 517, N4-(2-methyl-6-morpholinopyridin-3-yl)adamantane-1,4-diamine], the EC50 lay in the range of 100 to 1000 nM. Consider `CCCC(CCC)Nc1ccc(C(C)(C)C)cc1` [Compound 188, 4-(tert-butyl)-N-(heptan-4-yl)aniline], for which the EC50 was in the range of 100 to 1000 nM. The same measure, in the same setting: the figure for `CC(C)c1ccc(NC2CCC(CN)CC2)cc1` (centres unmarked) [Compound 283, N-(4-(aminomethyl)cyclohexyl)-4-isopropylaniline] is 0.1 to 100 nM; for `CC(C)(C)c1ccc(NC2CC(N)C2)cc1` (centres unmarked) [Compound 123, N1-(4-(tert-butyl)phenyl)cyclobutane-1,3-diamine] it is 100 to 1000 nM. As for `N[C@H]1CC[C@H](CNc2ccc3c(c2)CCCC3)CC1` [Compound 310, N-(((1r,4r)-4-aminocyclohexyl)methyl)-5,6,7,8-tetrahydronaphthalen-2-amine], the EC50 was in the range of 0.1 to 100 nM. On to `NC1CCC(Nc2cc(F)c(N3CCC(C(F)(F)F)CC3)c(F)c2)CC1` (centres unmarked) [Compound 54A, N1-(3,5-difluoro-4-(4-(trifluoromethyl)piperidin-1-yl)phenyl)cyclohexane-1,4-diamine], for which the EC50 lay in the range of 0.1 to 100 nM.

Consider `CC(C)(C)c1ccc(NC2CCC(C(N)=O)CC2)cc1` (centres unmarked) [Compound 192, 4-((4-(tert-butyl)phenyl)amino)cyclohexane-1-carboxamide], for which the EC50 lay in the range of 100 to 1000 nM.

`Cc1nc(N2CC3CC(C2)O3)ccc1NC1CC2(CC(N)C2)C1` (centres unmarked) [Compound 524, N2-(6-(6-oxa-3-azabicyclo[3.1.1]heptan-3-yl)-2-methylpyridin-3-yl)spiro[3.3]heptane-2,6-diamine] displayed an EC50 of 100 to 1000 nM. For `NC1CCC(Nc2ccc(N3CCC(C(F)(F)F)CC3)c(OCCO)c2)CC1` (centres unmarked) [Compound 416, (5-((4-aminocyclohexyl)amino)-2-(4-(trifluoromethyl)piperidin-1-yl)phenoxy) ethan-1-ol], the EC50 lay within 0.1 to 100 nM.

Turning to `Cc1cc(N2CC(C)CC(C)C2)ccc1NC[C@H]1CC[C@H](N)CC1` (some centres unmarked) [Compound 418], the EC50 fell in the range of 0.1 to 100 nM.

For the molecule `CC(C)(C)c1ccc(N[C@H]2CC[C@@H](N)CC2)cc1` [Compound 198, (1s,4s)-N1-(4-(tert-butyl)phenyl)cyclohexane-1,4-diamine], the EC50 was 100 to 1000 nM. In the case of `NC(=O)C1CCC(Nc2ccc(N3CCC(C(F)(F)F)CC3)cc2)CC1` (centres unmarked) [Compound 10, 4-((4-(4-(trifluoromethyl)piperidin-1-yl)phenyl)amino)cyclohexane-1-carboxamide], the EC50 was in the range of 0.1 to 100 nM. `CC1(C)CCC(c2ccc(NC3CCC(CCN)CC3)cc2)CC1` (centres unmarked) [Compound 118, N-(4-(2-aminoethyl)cyclohexyl)-4-(4,4-dimethylcyclohexyl)aniline] had an EC50 of 0.1 to 100 nM. `NC1C[C@@H]2CC(Nc3ccc(N4CCC(C(F)(F)F)CC4)cc3)C[C@@H]2C1` (stereo partly drawn) [Compound 363, (3aR, 6aS)-N2-(4-(4-(trifluoromethyl)piperidin-1-yl)phenyl) octahydropentalene-2,5-diamine]: the EC50 lay in the range of 0.1 to 100 nM. On the same count and under the same terms, the figure for `CC1(C)CCC(c2ccc(NC3CC(NC(=O)[C@H]4CNC(=O)N4)C3)cc2)CC1` (stereo partly drawn) [Compound 129, (R)—N-(3-((4-(4,4-dimethylcyclohexyl)phenyl)amino)cyclobutyl)-2-oxoimidazolidine-4-carboxamide] is 100 to 1000 nM.

With `Cc1cc(NC2CC3(CC(N)C3)C2)cnc1N1C[C@H](C)O[C@@H](C)C1` (stereo in doubt) [Compound 480, N2-(6-((25,6S)-2,6-dimethylmorpholino)-5-methylpyridin-3-yl)spiro[3.3]heptane-2,6-diamine], the EC50 lay within 100 to 1000 nM. `CC[C@@H]1CN(c2ccc(NC[C@H]3CC[C@H](N)CC3)c(C)n2)C[C@@H](CC)O1` [Compound 548, N-(((1r,4R)-4-aminocyclohexyl)methyl)-6-((2R,6R)-2,6-diethylmorpholino)-2-methylpyridin-3-amine] returned an EC50 of 0.1 to 100 nM. For the molecule `Cc1cc(N2CCC(C(F)(F)F)CC2)c(F)cc1NC1CCC(C(N)=O)CC1` (centres unmarked) [Compound 435, 4-((5-fluoro-2-methyl-4-(4-(trifluoromethyl)piperidin-1-yl)phenyl)amino)cyclohexane-1-carboxamide], the EC50 fell in the range of 0.1 to 100 nM. Same read-out and setting: the figure for `CNC1CCC(Nc2ccc(C(C)(C)C)cc2)C1` (centres unmarked) [Compound 194, N1-(4-(tert-butyl)phenyl)-N3-methylcyclopentane-1,3-diamine] is 100 to 1000 nM.

The assay is the same for the next values; noted with them: Homo sapiens, HT-1080, 20 h, ferroptosis inducer RSL3, 20 hours, ferroptosis inhibitory activity, Table 3.
`NC1CC(Nc2ccc3cc(N4CCN(CC(F)(F)F)CC4)ccc3c2)C1` (centres unmarked) [Compound 593, N^1-(6-(4-(2,2,2-trifluoroethyl)piperazin-1-yl)naphthalen-2-yl)cyclobutane-1,3-diamine] came in with an EC50 of 0.1 to 100 nM. For the molecule `CCNc1ccc2cc(NC3CC4(CC(N)C4)C3)ccc2c1` (centres unmarked) [Compound 658, N2-(6-aminospiro[3.3]heptan-2-yl)-N^6-ethylnaphthalene-2,6-diamine], the EC50 lay in the range of 0.1 to 100 nM. Same read-out and setting: to `COCCNc1ccc2cc(NC3CC4(CC(N)C4)C3)ccc2c1` (centres unmarked) [Compound 650, N2-(6-aminospiro [3.3]heptan-2-yl)-N6-(2-methoxyethyl) naphthalene-2,6-diamine] belongs 0.1 to 100 nM. The molecule `NC1CC2(C1)CC(Nc1ccc3cc(N4CCOCC4)ccc3c1)C2` (centres unmarked) [Compound 614, N2-(6-morpholinonaphthalen-2-yl)spiro[3.3]heptane-2,6-diamine] displayed a concentration for a half-maximal effect (EC50) of 0.1 to 100 nM. In turn, `Cc1nc(N2CCC(C)(C)CC2)ccc1NC1CC2(CC(N)C2)C1` (centres unmarked) [Compound 602, N2-(6-(4,4-dimethylpiperidin-1-yl)-2-methylpyridin-3-yl)spiro[3.3]heptane-2,6-diamine] showed an EC50 of 0.1 to 100 nM. The same measure, in the same setting: the figure for `Cc1nc(N2CCC(C(C)(C)O)CC2)ccc1NC1CC2(CC(N)C2)C1` (centres unmarked) [Compound 599] is 100 to 1000 nM; for `CCc1nc(N2CC(C)OC(C(F)(F)F)C2)ccc1NC1CC2(CC(N)C2)C1` (centres unmarked) [Compound 659, N2-(2-ethyl-6-(2-methyl-6-(trifluoromethyl)morpholino)pyridin-3-yl)spiro[3.3]heptane-2,6-diamine] it is 0.1 to 100 nM.

The assay is the same for the next values; noted with them: Homo sapiens, ferroptosis inducer RSL3, 20 hours, ferroptosis inhibitory activity, Table 2.
The molecule `CC1(C)CCC(c2ccc(NC3CCC(CNC(N)=O)CC3)cc2)CC1` (centres unmarked) [Compound 116, 1-((4-((4-(4,4-dimethylcyclohexyl)phenyl)amino)cyclohexyl)methyl)urea] returned an EC50 of 0.1 to 100 nM.

Turning to `CC(C)C1CCN(c2ncc(NC3CCC(CN)CC3)cn2)CC1` (centres unmarked) [Compound 24A, N-(4-(aminomethyl)cyclohexyl)-2-(4-isopropylpiperidin-1-yl)pyrimidin-5-amine], the EC50 lay in the range of 0.1 to 100 nM.

Staying with this assay, now noted: ferroptosis inducer RSL3, 20 hours, ferroptosis inhibitory activity, Table 2.
In turn, `CCC(C)(C)c1ccc(NC2CCC(NCCO)CC2)cc1` (single isomer, unassigned) [Compound 295A, 2-((4-((4-(tert-pentyl)phenyl)amino)cyclohexyl)amino)ethan-1-ol] returned an EC50 of 100 to 1000 nM.
